# In EP4806897A1, “AZA-BRIDGED RING DERIVATIVE” (Chia Tai Tianqing Pharmaceutical Group Co., Ltd., priority 2023, dated 2025):
# Tests used:
# Menin-MLL interaction = target: T1, Menin-MLL interaction (Homo sapiens, UniProt O00255); assay: Fluorescence polarization assay of Menin-MLL interaction; conditions: GST-MENIN (1-615 aa) 8 nM, FITC-MLL15-43 8 nM; read-out: IC50 (nM) for inhibitory activity against Menin-MLL protein binding
# T1 construct: GST-MENIN (1-615 aa) and FITC-MLL15-43 were diluted with an FP buffer
# T1 sequence (O00255 1-615 isoform O00255-1): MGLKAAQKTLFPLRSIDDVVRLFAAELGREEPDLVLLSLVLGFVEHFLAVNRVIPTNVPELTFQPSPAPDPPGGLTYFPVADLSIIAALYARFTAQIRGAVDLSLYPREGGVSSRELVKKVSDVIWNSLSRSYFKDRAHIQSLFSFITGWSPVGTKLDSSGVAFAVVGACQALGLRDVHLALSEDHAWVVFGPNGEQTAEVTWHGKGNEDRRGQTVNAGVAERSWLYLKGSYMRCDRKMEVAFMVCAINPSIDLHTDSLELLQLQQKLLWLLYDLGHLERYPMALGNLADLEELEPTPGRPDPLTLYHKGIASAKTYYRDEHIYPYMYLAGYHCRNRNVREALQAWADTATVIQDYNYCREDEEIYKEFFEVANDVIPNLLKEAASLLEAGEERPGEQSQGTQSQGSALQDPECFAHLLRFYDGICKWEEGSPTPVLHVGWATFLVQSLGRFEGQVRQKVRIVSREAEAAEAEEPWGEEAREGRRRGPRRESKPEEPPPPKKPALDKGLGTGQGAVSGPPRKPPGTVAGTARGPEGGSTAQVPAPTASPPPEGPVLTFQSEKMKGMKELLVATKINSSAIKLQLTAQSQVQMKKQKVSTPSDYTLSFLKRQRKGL
# Experimental: The binding activity of the compounds for the menin protein was determined by a fluorescence polarization assay. GST-MENIN (1-615 aa) and FITC-MLL15-43 were diluted with an FP buffer (50 mM Tris-HCl pH 7.5, 50 mM NaCl, 1 mM DTT, 0.01% BSA), and the mixed solution of GST-MENIN (1-615 aa) at a final concentration of 8 nM and FITC-MLL15-43 at a final concentration of 8 nM was added to a black 384-well microtiter plate at 10 µL/well. The plate was centrifuged at 2500 rpm for 1 min and incubated at room temperature in the dark for 1 h. 5 µL of diluted compound (7 concentration points, 4-fold serial dilution, with blank control and negative control wells set) was added, and the plate was centrifuged at 2500 rpm for 1 min and incubated at room temperature in the dark for 3 h. After incubation, FP (480/535) values were measured using a PerkinElmer Envision multi-functional microplate reader, and the ability of the compounds to inhibit the Menin-MLL interaction was determined by calculating the inhibition rate (%) for each compound concentration according to formula 1; formula 1: inhibition rate (%) = 1 - (Maximum mP Control - mP of administration group)/(Maximum mP Control - minimum mP Control) × 100%. Four-parameter analysis was performed in GraphPad Prism software to fit dose-response curves and calculate IC50 values. A represents that IC50 < 50 nM. Table 2. Inhibitory activity against Menin-MLL protein binding
# MV-4-11 cells = assay: In vitro cell activity assay (CCK-8 proliferation), MV-4-11; assay type: cell-based; conditions: Homo sapiens, MV4-11; CCK-8, 72-120 h; read-out: IC50 (nM) for inhibitory activity against proliferation of MV-4-11 cells
# Experimental: (§1) MOLM-13 cells or MV-4-11 cells (source: Nanjing Cobioer Biosciences Co., Ltd.) in a good growth state were taken and seeded into a 96-well plate (100 µL/well) at 2000-10000 cells/well. After the cells were cultured overnight in a cell incubator at 37 °C, the compounds were subjected to gradient dilution and added using a pipettor, with 2 parallel replicate wells in each group. Meanwhile, a control group was set. After the cells were cultured in a cell incubator at 37 °C for another 72-120 h, the detection reagent CCK-8 (manufacturer: Dojindo Laboratories, Japan; 10 µL/well) was added. After the cells were cultured at 37 °C for another 3-5 h, absorbance values were measured at […] using a PerkinElmer Envision multi-functional microplate reader. Four-parameter analysis was performed in GraphPad Prism software to fit dose-response curves and calculate IC50 values. A represents that IC50 < 50 nM. Table 1. Inhibitory activity against cell proliferation
# MOLM-13 cells = assay: In vitro cell activity assay (CCK-8 proliferation), MOLM-13; assay type: cell-based; conditions: Homo sapiens, CCK-8, 72-120 h, read-out: IC50 (nM) for inhibitory activity against proliferation of MOLM-13 cells
# Experimental: as §1
# [1] = In vitro liver microsomal stability, human; conditions: human liver microsomes 0.5 mg/mL, compound 1 µM, 37 °C
# Experimental: (§2) Liver microsome incubation samples were prepared by mixing a PBS buffer (pH 7.4), a liver microsome solution from various species (human, mouse, monkey, dog, and rat) (0.5 mg/mL), a test compound (final concentration: 1 µM), and an NADPH + MgCl2 solution, followed by incubation at 37 °C and 300 rpm. Samples were collected from the reaction solution at the time points of 15 min and 60 min. Zero-hour samples were prepared by mixing a PBS buffer (pH 7.4), a liver microsome solution (0.5 mg/mL), and a test compound. An acetonitrile solution containing an internal standard was added to the samples, and supernatants were prepared by protein precipitation, diluted, and then assayed by LC-MS/MS.
# [2] = In vitro liver microsomal stability, mouse; conditions: mouse liver microsomes 0.5 mg/mL, compound 1 µM, 37 °C
# Experimental: as §2
SMILES,IC50 (Menin-MLL interaction) [nM],IC50 (MV-4-11 cells) [nM],IC50 (MOLM-13 cells) [nM],Residuals at 60 min (%) [1] [%],Residuals at 60 min (%) [2] [%]
C=C1C[C@@H]2CC[C@H]1[C@@H](C(=O)N1CCC3(CC1)CN(c1ncnnc1Oc1ccc(F)cc1C(=O)N1C(C)CCCC1C)C3)N2 (stereo partly shown) [Compound 46],< 50,< 50,–,–,–
C=C1C[C@@H]2CC[C@H]1[C@@H](C(=O)N1CCC3(CC1)CN(c1ncncc1Oc1ccc(F)cc1-c1cccnc1C1CC1)C3)N2 [Compound 3],< 50,< 50,< 50,–,–
C=C1C[C@@H]2CC[C@H]1[C@@H](C(=O)N1CCC3(CC1)CN(c1ncnnc1Oc1ccc(F)cc1-c1ccnn1C(C)C)C3)N2 [Compound 32],< 50,< 50,–,–,–
C=C1C[C@@H]2CC[C@H]1[C@@H](C(=O)N1CC3(C1)CN(c1ncnnc1Oc1ccc(F)cc1C(=O)N(CC)C(C)C)C3)N2 [Compound 56],< 50,< 50,< 50,>40,–
C=C1C[C@@H]2CC[C@H]1[C@@H](C(=O)N1CC3(C1)CN(c1ncnnc1Oc1ccc(F)cc1-c1cncnc1C1CC1)C3)N2 [Compound 73],< 50,< 50,< 50,–,>60
C=C1C[C@@H]2CC[C@H]1[C@@H](C(=O)N1CCC3(CC1)CN(c1ncncc1Oc1ccc(F)cc1-c1ccnn1C(C)C)C3)N2 [Compound 4],< 50,< 50,< 50,–,–
C=C1C[C@@H]2CC[C@H]1[C@@H](C(=O)N1CCC3(CC1)CN(c1ccnnc1Oc1ccc(F)cc1-c1cccnc1C1CC1)C3)N2 [Compound 35],< 50,< 50,< 50,–,–
C=C1C[C@@H]2CC[C@H]1[C@@H](C(=O)N1CC3(C1)CN(c1ncnnc1Oc1ccc(F)cc1-c1ccnn1C(C)C)C3)N2 [Compound 71],< 50,< 50,< 50,–,–
C=C1CC2CCC1C(C(=O)N1CCC3(CC1)CN(c1ncncc1Oc1ccc(F)cc1C(=O)N(C)C(C)C)C3)N2 (stereo not shown) [Compound 6],–,< 50,–,–,–
C=C1CC2CCC1C(C(=O)N1CCCC3(CC1)CN(c1ncncc1Oc1ccc(F)cc1-c1cncnc1C1CC1)C3)N2 (stereo not shown) [Compound 77],–,< 50,< 50,–,–
C=C1C[C@@H]2CC[C@H]1[C@@H](C(=O)N1CCC3(CC1)CN(c1ncnnc1Oc1ccc(F)cc1C(=O)N(C(C)C)C(C)C)C3)N2 [Compound 50],< 50,< 50,< 50,–,–
C=C1CC2CCC1C(C(=O)N1CCC3(CC1)CN(c1ncnnc1Oc1ccc(F)cc1-c1cccnc1OC)C3)N2 (stereo not shown) [Compound 34],–,< 50,–,–,–
C=C1C[C@@H]2CC[C@H]1[C@@H](C(=O)N1CCC3(CC1)CN(c1ncnnc1Oc1ccc(F)cc1-c1ccnnc1C1CC1)C3)N2 [Compound 74],< 50,< 50,< 50,–,–
C=C1C[C@@H]2CC[C@H]1[C@@H](C(=O)N1CCC3(CC1)CN(c1ccnnc1Oc1ccc(F)cc1C(=O)N(CC)C(C)C)C3)N2 [Compound 36],< 50,< 50,< 50,–,–
C=C1C[C@@H]2CC[C@H]1[C@@H](C(=O)N1CCC3(CC1)CN(c1ncncc1Oc1ccc(F)cc1C(=O)N(CC)C(C)C)C3)N2 [Compound 2],< 50,< 50,< 50,–,–
C=C1CC2CCC1C(C(=O)N1CCC3(CC1)CN(c1ncnnc1Oc1ccc(F)cc1-c1nccnc1C1CC1)C3)N2 (stereo not shown) [Compound 66],–,< 50,–,–,–
C=C1CC2CCC1C(C(=O)N1CCC3(CC1)CN(c1ncnnc1Oc1ccc(F)cc1-c1nccn1C(C)C)C3)N2 (stereo not shown) [Compound 65],–,< 50,–,–,–
C=C1CC2CCC1C(C(=O)N1CCC3(CC1)CN(c1ncnnc1Oc1ccc(F)cc1-c1ccnn1C1CC1)C3)N2 (stereo not shown) [Compound 70],–,< 50,–,–,–
C=C1C[C@@H]2CC[C@H]1[C@@H](C(=O)N1CCC3(CC1)CN(c1ncnnc1Oc1ccc(F)cc1-c1cc(C(F)(F)F)cnc1C1CC1)C3)N2 [Compound 54],< 50,< 50,< 50,–,–
C=C1C[C@@H]2CC[C@H]1[C@@H](C(=O)N1CCC3(CC1)CN(c1ncnnc1Oc1ccc(F)cc1-c1cncnc1C1CC1)C3)N2 [Compound 33],< 50,< 50,–,–,>60
C=C1C[C@@H]2CC[C@H]1[C@@H](C(=O)N1CCC3(CC1)CN(c1ncnnc1Oc1ccc(F)cc1C(=O)N(CC)C(C)C)C3)N2 [Compound 27],< 50,< 50,< 50,>40,>60
C=C1C[C@@H]2CC[C@H]1[C@@H](C(=O)N1CCC3(CC1)CN(c1ncnnc1Oc1ccc(F)cc1-c1cnccc1OC)C3)N2 [Compound 48],< 50,–,–,>40,>60
C=C1C[C@@H]2CC[C@H]1[C@@H](C(=O)N1CCC3(CC1)CN(c1ncnnc1Oc1ccc(F)cc1-c1cccnc1C1CC1)C3)N2 [Compound 31],< 50,< 50,< 50,–,–
C=C1CC2CCC1C(C(=O)N1CCC3(CC1)CN(c1ncnnc1Oc1c(F)cc(F)cc1-c1cccnc1C1CC1)C3)N2 (stereo not shown) [Compound 58],–,< 50,–,–,–
C=C1C[C@@H]2CC[C@H]1[C@@H](C(=O)N1CCC3(CC1)CN(c1ncnnc1Oc1ccc(F)cc1-c1ccc(O)nc1C1CC1)C3)N2 [Compound 64],< 50,< 50,–,>40,>60
C=C1C[C@@H]2CC[C@H]1[C@@H](C(=O)N1CC3(C1)CN(c1ncnnc1Oc1ccc(F)cc1-c1cccnc1C1CC1)C3)N2 [Compound 67],< 50,< 50,< 50,–,–
C=C1CC2CCC1C(C(=O)N1CCCC3(CC1)CN(c1ncncc1Oc1ccc(F)cc1-c1cccnc1C1CC1)C3)N2 (stereo not shown) [Compound 76],–,< 50,< 50,–,–
